Literature values, collected in patent publication US20170315129A1, “CANCER CELL DETECTION METHOD USING LIVING BODY-DERIVED CELLS OF BIOLOGICAL ORIGIN” (Hirosaki University, priority 2014, published 2017).

System: mammalian cells
Details: kinetics comparable to a radiolabeled D-glucose derivative; cited from earlier work

## O=[N+]([O-])c1ccc(N[C@H]2C(O)O[C@H](CO)[C@@H](O)[C@@H]2O)c2nonc12 (stereo partly shown) [2-NBDG]
  uptake into mammalian cells: taken up into mammalian cells through glucose transporters
